The values below come from US20090221687A1, “Tetracyclic Monoamine Reuptake Inhibitors for Treatment of Cns Diseases and Disorders” (priority 2005, published 2009).

Like-named read-outs stand apart in the source and are kept apart here.

A short description of data set [1]: pKa. Format: physicochemical.
Data set [2] in a line: logP. In kind it is physicochemical.
Data set [3] can be described thus: solubility. Format: physicochemical. The following applies: at 25° C. and ionic strength 0.15 M; read-out: solubility (S).
Data set [4] addresses T1, Serotonin Transporter (SERT) (Homo sapiens, UniProt P31645).
T1 construct: expressed in transfected cells; host or cells: HEK-293 cells
The settings on record: human recombinant HEK-293 cells, historical value for the KD of the ligand, cited from earlier work.

For data set [5], the target named is T2, Norepinephrine Transporter (NET) (Homo sapiens, UniProt P23975).
T2 construct: expressed in transfected cells; host or cells: MDCK cells
The following applies: read-out: KD of the radioligand; human recombinant MDCK cells; historical value for the KD of the ligand; cited from earlier work.

The subject of data set [6] is mice. In words: Tail-suspension test in mice: evaluation of antidepressive efficacy. The settings on record: 10 mg/kg i.p., 30 min prior to testing, vehicle control 70%. In kind it is in vivo. The text has this:
The aim of this study was to evaluate potential antidepressant activity of selected compounds Formula I. The tail suspension test has been routinely employed to test potential antidepressant compounds (See H. G. Vogel and W. H. Vogel, Drug Discovery and Evaluation, Pharmacological Assays, Springer-Verlag, 1997, p 304-305). The percentage of drug-treated animals showing the passive behavior (i.e., the immobility that mice display after active and unsuccessful attempts to escape when suspended by the tail) is measured and compared with vehicle-treated control animals. The duration of immobility is recorded for about 5 minutes. Mice are considered immobile when they hang passively and completely motionless for at least 1 minute. Active antidepressants reduce the immobility.
Groups of 9 animals were treated with compounds encompassed by Formula I (0.1-10 mg/kg; s.c.), or fluoxetine (10 mg/kg i.p.), and one group of 15 animals was treated with the vehicle by s.c. injection as a […] control. All animals were treated for 30 min prior to testing. The percentage of drug-treated animals showing passive behavior was determined and compared with vehicle-treated controls. […]

T1 sequence (P31645 whole entry): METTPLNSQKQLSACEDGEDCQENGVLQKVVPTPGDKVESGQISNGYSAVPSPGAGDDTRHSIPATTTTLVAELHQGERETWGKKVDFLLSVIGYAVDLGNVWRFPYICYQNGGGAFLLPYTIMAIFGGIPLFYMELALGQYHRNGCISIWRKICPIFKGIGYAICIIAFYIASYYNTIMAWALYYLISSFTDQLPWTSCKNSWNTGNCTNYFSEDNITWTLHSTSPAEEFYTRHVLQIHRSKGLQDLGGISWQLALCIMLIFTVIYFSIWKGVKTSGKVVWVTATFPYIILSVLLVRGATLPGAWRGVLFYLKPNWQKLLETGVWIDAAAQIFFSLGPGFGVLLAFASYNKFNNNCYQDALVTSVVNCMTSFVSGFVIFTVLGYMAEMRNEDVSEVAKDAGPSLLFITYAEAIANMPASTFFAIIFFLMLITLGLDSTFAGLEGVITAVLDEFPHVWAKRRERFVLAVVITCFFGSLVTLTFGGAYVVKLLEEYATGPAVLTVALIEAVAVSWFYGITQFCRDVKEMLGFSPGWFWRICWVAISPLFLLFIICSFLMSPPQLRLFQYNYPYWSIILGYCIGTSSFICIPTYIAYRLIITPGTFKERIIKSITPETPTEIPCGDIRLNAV
T2 sequence (P23975 whole entry): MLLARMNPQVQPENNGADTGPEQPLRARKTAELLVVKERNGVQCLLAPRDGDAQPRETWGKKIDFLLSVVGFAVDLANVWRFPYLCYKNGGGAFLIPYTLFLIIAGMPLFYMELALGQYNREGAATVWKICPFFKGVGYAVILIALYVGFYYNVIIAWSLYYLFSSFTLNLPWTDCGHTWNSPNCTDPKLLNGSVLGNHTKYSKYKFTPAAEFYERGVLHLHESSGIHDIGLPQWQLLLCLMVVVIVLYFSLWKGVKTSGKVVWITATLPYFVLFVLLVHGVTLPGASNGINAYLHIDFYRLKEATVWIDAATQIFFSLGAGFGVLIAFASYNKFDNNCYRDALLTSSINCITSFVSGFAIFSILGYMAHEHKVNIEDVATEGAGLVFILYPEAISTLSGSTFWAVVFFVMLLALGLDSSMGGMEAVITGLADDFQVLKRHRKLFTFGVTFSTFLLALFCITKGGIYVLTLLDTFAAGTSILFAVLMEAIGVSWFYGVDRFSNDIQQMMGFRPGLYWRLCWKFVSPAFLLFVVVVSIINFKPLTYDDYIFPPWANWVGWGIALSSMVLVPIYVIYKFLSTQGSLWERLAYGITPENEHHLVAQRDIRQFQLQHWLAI

As a reminder, the pKa is the pH at which an ionisable group is half protonated. Higher therefore signals a group that holds its proton tightly. The term logP denotes a log measure of how a compound divides between an organic and an aqueous phase. As usually defined, the solubility is how much of the substance goes into solution per volume. `CCOC(=O)c1cc2c(s1)-c1cc(Cl)cc(OCCCN(C)C)c1Oc1ccccc1-2.O=C(O)CC(O)(CC(=O)O)C(=O)O` [Example 2, 11-Chloro-9-(3-dimethylamino-propoxy)-8-oxa-1-thia-dibenzo[e,h]azulene-2-carboxylic acid ethyl ester citrate salt]: the pKa in data set [1] was determined as 6.9. In data set [2], the lipophilicity (logP) worked out at 4.5. Moreover, in data set [3], the solubility came to 167 mg/mL.

Regarding `COC(=O)[C@H]1[C@@H](c2ccc(I)cc2)C[C@@H]2CC[C@H]1N2C` [[^125I] RTI-55, 3 beta-(4-iodophenyl)tropan-2 beta-carboxylic acid methyl ester], the Kd in data set [4] (read-out: KD1 of the radioligand) is 0.17 nM; in data set [4] (read-out: KD2 of the radioligand) it was 2200 nM; in data set [5], 24 nM.

In the case of `CNCCC(Oc1ccc(C(F)(F)F)cc1)c1ccccc1` (stereo not shown) [fluoxetine], the “percentage of animals depressive (exhibiting passive behavior)” value in data set [6] is given as 22%.
